# According to ChEMBL document CHEMBL3885881, “DrugMatrix”:
# Species on record: Rattus norvegicus
# Assay: DrugMatrix - Regimen: Daily Repeat
# Type: toxicity, organism-based, Sprague-Dawley
# Parameters: regimen Daily Repeat, gender Male, age 6-8 weeks
# Conditions: in vivo, po, route oral GAVAGE, vehicle .5 % CMC; for ABSOLUTE BASOPHIL / ABSOLUTE EOSINOPHIL / ABSOLUTE LYMPHOCYTE / ABSOLUTE MONOCYTE / ABSOLUTE SEGMENTED NEUTROPHIL / BASOPHIL / EOSINOPHIL / ERYTHROCYTE COUNT / HEMATOCRIT / HEMOGLOBIN / LEUKOCYTE COUNT / LYMPHOCYTE / MEAN CORPUSCULAR HEMOGLOBIN / MEAN CORPUSCULAR HEMOGLOBIN CONCENTRATION / MONOCYTE / NEUTROPHIL / NUCLEATED RED BLOOD CELLS / PLATELET COUNT: tissue Blood; for ALANINE AMINOTRANSFERASE / ALBUMIN / ALKALINE PHOSPHATASE / ASPARTATE AMINOTRANSFERASE / BLOOD UREA NITROGEN / CARBON DIOXIDE / CHLORIDE / CHOLESTEROL / CREATINE PHOSPHOKINASE / CREATININE / GLUCOSE / LACTATE DEHYDROGENASE / LIPASE / PHOSPHORUS / POTASSIUM / SODIUM / TOTAL BILIRUBIN / TOTAL PROTEIN / URIC ACID: tissue Plasma
# [1] = 0 mg/kg, 72 h, dose level Control, time 3 day
# [2] = 0 mg/kg, 120 h, dose level Control, time 5 day
# [3] = 1100 mg/kg, 72 h, dose level High, time 3 day
# [4] = 1100 mg/kg, 120 h, dose level High, time 5 day
structure (smiles),measurement,setting,value
C[C@H]1[C@H](NC(=O)/C(=N\OC(C)(C)C(=O)O)c2csc(N)n2)C(=O)N1S(=O)(=O)O [AZTREONAM],ABSOLUTE BASOPHIL,[1],0 CELLS/uL
same,ABSOLUTE EOSINOPHIL,[1],222.83 CELLS/uL
same,ABSOLUTE LYMPHOCYTE,[1],14453 CELLS/uL
same,ABSOLUTE MONOCYTE,[1],0 CELLS/uL
same,ABSOLUTE SEGMENTED NEUTROPHIL,[1],1490.83 CELLS/uL
same,BASOPHIL,[1],0%
same,EOSINOPHIL,[1],1.33%
same,ERYTHROCYTE COUNT,[1],5.76 x10E6/uL
same,HEMATOCRIT,[1],36.52%
same,HEMOGLOBIN,[1],13.45 G/DL
same,LEUKOCYTE COUNT,[1],16.17 x10E3/uL
same,LYMPHOCYTE,[1],89.33%
same,MEAN CORPUSCULAR HEMOGLOBIN,[1],23.37 pg
same,MEAN CORPUSCULAR HEMOGLOBIN CONCENTRATION,[1],36.85 G/DL
same,MONOCYTE,[1],0%
same,NEUTROPHIL,[1],9.33%
same,NUCLEATED RED BLOOD CELLS,[1],0 /100WBC
same,PLATELET COUNT,[1],1239.5 x10E3/uL
same,ALANINE AMINOTRANSFERASE,[1],43.83 u/L
same,ALBUMIN,[1],4.27 G/DL
same,ALKALINE PHOSPHATASE,[1],398.83 u/L
same,ASPARTATE AMINOTRANSFERASE,[1],81.17 u/L
same,BLOOD UREA NITROGEN,[1],17.67 mg/dL
same,CARBON DIOXIDE,[1],27.5 mmol/L
same,CHLORIDE,[1],99.17 MEQ/L
same,CHOLESTEROL,[1],74 mg/dL
same,CREATINE PHOSPHOKINASE,[1],331.5 u/L
same,CREATININE,[1],0.2 mg/dL
same,GLUCOSE,[1],171.33 mg/dL
same,LACTATE DEHYDROGENASE,[1],241.67 u/L
same,LIPASE,[1],9.5 u/L
same,PHOSPHORUS,[1],12.25 mg/dL
same,POTASSIUM,[1],6.33 MEQ/L
same,SODIUM,[1],141.28 MEQ/L
same,TOTAL BILIRUBIN,[1],0.15 mg/dL
same,TOTAL PROTEIN,[1],5.98 G/DL
same,URIC ACID,[1],1.63 mg/dL
same,ABSOLUTE BASOPHIL,[2],0 CELLS/uL
same,ABSOLUTE EOSINOPHIL,[2],148.67 CELLS/uL
same,ABSOLUTE LYMPHOCYTE,[2],16020.5 CELLS/uL
same,ABSOLUTE MONOCYTE,[2],29.17 CELLS/uL
same,ABSOLUTE SEGMENTED NEUTROPHIL,[2],1468.33 CELLS/uL
same,BASOPHIL,[2],0%
same,EOSINOPHIL,[2],1%
same,ERYTHROCYTE COUNT,[2],5.78 x10E6/uL
same,HEMATOCRIT,[2],35.77%
same,HEMOGLOBIN,[2],13.4 G/DL
same,LEUKOCYTE COUNT,[2],17.67 x10E3/uL
same,LYMPHOCYTE,[2],90.5%
same,MEAN CORPUSCULAR HEMOGLOBIN,[2],23.22 pg
same,MEAN CORPUSCULAR HEMOGLOBIN CONCENTRATION,[2],37.47 G/DL
same,MONOCYTE,[2],0.17%
same,NEUTROPHIL,[2],8.33%
same,NUCLEATED RED BLOOD CELLS,[2],0.17 /100WBC
same,PLATELET COUNT,[2],1255.5 x10E3/uL
same,ALANINE AMINOTRANSFERASE,[2],46.5 u/L
same,ALBUMIN,[2],4.38 G/DL
same,ALKALINE PHOSPHATASE,[2],336 u/L
same,ASPARTATE AMINOTRANSFERASE,[2],76.5 u/L
same,BLOOD UREA NITROGEN,[2],20 mg/dL
same,CARBON DIOXIDE,[2],27.5 mmol/L
same,CHLORIDE,[2],101 MEQ/L
same,CHOLESTEROL,[2],71.33 mg/dL
same,CREATINE PHOSPHOKINASE,[2],231.83 u/L
same,CREATININE,[2],0.37 mg/dL
same,GLUCOSE,[2],168.83 mg/dL
same,LACTATE DEHYDROGENASE,[2],174 u/L
same,LIPASE,[2],8.67 u/L
same,PHOSPHORUS,[2],11.48 mg/dL
same,POTASSIUM,[2],6.82 MEQ/L
same,SODIUM,[2],143.8 MEQ/L
same,TOTAL BILIRUBIN,[2],0.2 mg/dL
same,TOTAL PROTEIN,[2],5.98 G/DL
same,URIC ACID,[2],1.83 mg/dL
same,ABSOLUTE BASOPHIL,[3],0 CELLS/uL
same,ABSOLUTE EOSINOPHIL,[3],113.67 CELLS/uL
same,ABSOLUTE LYMPHOCYTE,[3],10636 CELLS/uL
same,ABSOLUTE MONOCYTE,[3],74.67 CELLS/uL
same,ABSOLUTE SEGMENTED NEUTROPHIL,[3],842.33 CELLS/uL
same,BASOPHIL,[3],0%
same,EOSINOPHIL,[3],1%
same,ERYTHROCYTE COUNT,[3],5.33 x10E6/uL
same,HEMATOCRIT,[3],34.77%
same,HEMOGLOBIN,[3],12.97 G/DL
same,LEUKOCYTE COUNT,[3],11.67 x10E3/uL
same,LYMPHOCYTE,[3],91%
same,MEAN CORPUSCULAR HEMOGLOBIN,[3],24.4 pg
same,MEAN CORPUSCULAR HEMOGLOBIN CONCENTRATION,[3],37.3 G/DL
same,MONOCYTE,[3],0.67%
same,NEUTROPHIL,[3],7.33%
same,NUCLEATED RED BLOOD CELLS,[3],0 /100WBC
same,PLATELET COUNT,[3],1394 x10E3/uL
same,ALANINE AMINOTRANSFERASE,[3],52 u/L
same,ALBUMIN,[3],4.03 G/DL
same,ALKALINE PHOSPHATASE,[3],364.67 u/L
same,ASPARTATE AMINOTRANSFERASE,[3],79 u/L
same,BLOOD UREA NITROGEN,[3],16.33 mg/dL
same,CARBON DIOXIDE,[3],27 mmol/L
same,CHLORIDE,[3],100.33 MEQ/L
same,CHOLESTEROL,[3],72 mg/dL
same,CREATINE PHOSPHOKINASE,[3],274.33 u/L
same,CREATININE,[3],0.18 mg/dL
same,GLUCOSE,[3],167.67 mg/dL
same,LACTATE DEHYDROGENASE,[3],74.33 u/L
same,LIPASE,[3],8.67 u/L
same,PHOSPHORUS,[3],11.13 mg/dL
same,POTASSIUM,[3],5.8 MEQ/L
same,SODIUM,[3],142.4 MEQ/L
same,TOTAL BILIRUBIN,[3],0.17 mg/dL
same,TOTAL PROTEIN,[3],5.53 G/DL
same,URIC ACID,[3],1.6 mg/dL
same,ABSOLUTE BASOPHIL,[4],0 CELLS/uL
same,ABSOLUTE EOSINOPHIL,[4],309 CELLS/uL
same,ABSOLUTE LYMPHOCYTE,[4],13777 CELLS/uL
same,ABSOLUTE MONOCYTE,[4],0 CELLS/uL
same,ABSOLUTE SEGMENTED NEUTROPHIL,[4],1914 CELLS/uL
same,BASOPHIL,[4],0%
same,EOSINOPHIL,[4],1.67%
same,ERYTHROCYTE COUNT,[4],5.78 x10E6/uL
same,HEMATOCRIT,[4],35.83%
same,HEMOGLOBIN,[4],13.5 G/DL
same,LEUKOCYTE COUNT,[4],16 x10E3/uL
same,LYMPHOCYTE,[4],87%
same,MEAN CORPUSCULAR HEMOGLOBIN,[4],23.37 pg
same,MEAN CORPUSCULAR HEMOGLOBIN CONCENTRATION,[4],37.7 G/DL
same,MONOCYTE,[4],0%
same,NEUTROPHIL,[4],11.33%
same,NUCLEATED RED BLOOD CELLS,[4],0.33 /100WBC
same,PLATELET COUNT,[4],1184.33 x10E3/uL
same,ALANINE AMINOTRANSFERASE,[4],47.67 u/L
same,ALBUMIN,[4],4.5 G/DL
same,ALKALINE PHOSPHATASE,[4],346 u/L
same,ASPARTATE AMINOTRANSFERASE,[4],72 u/L
same,BLOOD UREA NITROGEN,[4],16 mg/dL
same,CARBON DIOXIDE,[4],27 mmol/L
same,CHLORIDE,[4],102.33 MEQ/L
same,CHOLESTEROL,[4],65 mg/dL
same,CREATINE PHOSPHOKINASE,[4],183.33 u/L
same,CREATININE,[4],0.2 mg/dL
same,GLUCOSE,[4],176.67 mg/dL
same,LACTATE DEHYDROGENASE,[4],90 u/L
same,LIPASE,[4],9.33 u/L
same,PHOSPHORUS,[4],11.4 mg/dL
same,POTASSIUM,[4],6.11 MEQ/L
same,SODIUM,[4],146.47 MEQ/L
same,TOTAL BILIRUBIN,[4],0.13 mg/dL
same,TOTAL PROTEIN,[4],6 G/DL
same,URIC ACID,[4],1.7 mg/dL
